“And” between values parts separate entries of the source, which are not always exact repeats. Equal values may be shown once.
Legend:
Type in all cases: cell-based
[1] = molecular target: T1, AaegOR28 (Aedes aegypti, UniProt Q0IGE1); test: Two-electrode voltage clamp of Xenopus laevis oocytes expressing AaegOR28/Orco (blends, unitary compounds, concentration-response); conditions: for Raw Data (Responses in nA), Alcohols 3 unitary compounds / Normalized response, Average, Alcohols 3 unitary compounds / Normalized response, Alcohols 3 unitary compounds / Raw Data (Responses in nA), concentration-response: AaegOR28; for Raw Data (Responses in nA), Alcohols 3 unitary compounds / Normalized response, Average, Alcohols 3 unitary compounds / Normalized response, Alcohols 3 unitary compounds: compounds of blend Alcohols 3; for Raw Data (Responses in nA), Alcohols 3 unitary compounds: individual oocytes 1-10; for Normalized response, Average, Alcohols 3 unitary compounds: average of 10 oocytes; for Normalized response, Alcohols 3 unitary compounds: individual oocytes 1-10, normalized to largest response of each oocyte; for Raw Data (Responses in nA), concentration-response: individual oocytes 1-8
T1 sequence (Q0IGE1 1-394): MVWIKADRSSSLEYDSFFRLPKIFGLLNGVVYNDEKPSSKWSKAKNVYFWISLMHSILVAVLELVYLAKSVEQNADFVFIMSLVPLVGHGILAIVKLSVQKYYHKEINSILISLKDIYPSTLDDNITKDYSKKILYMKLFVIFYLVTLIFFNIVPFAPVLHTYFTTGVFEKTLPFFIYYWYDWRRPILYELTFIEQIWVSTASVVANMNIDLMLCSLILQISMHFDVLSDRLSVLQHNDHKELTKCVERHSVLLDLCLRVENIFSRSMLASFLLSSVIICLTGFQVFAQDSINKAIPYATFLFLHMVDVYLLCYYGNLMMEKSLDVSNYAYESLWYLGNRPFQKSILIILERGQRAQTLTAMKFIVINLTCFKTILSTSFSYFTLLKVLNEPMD
T1 sequence (Q178U6 1-478 partner): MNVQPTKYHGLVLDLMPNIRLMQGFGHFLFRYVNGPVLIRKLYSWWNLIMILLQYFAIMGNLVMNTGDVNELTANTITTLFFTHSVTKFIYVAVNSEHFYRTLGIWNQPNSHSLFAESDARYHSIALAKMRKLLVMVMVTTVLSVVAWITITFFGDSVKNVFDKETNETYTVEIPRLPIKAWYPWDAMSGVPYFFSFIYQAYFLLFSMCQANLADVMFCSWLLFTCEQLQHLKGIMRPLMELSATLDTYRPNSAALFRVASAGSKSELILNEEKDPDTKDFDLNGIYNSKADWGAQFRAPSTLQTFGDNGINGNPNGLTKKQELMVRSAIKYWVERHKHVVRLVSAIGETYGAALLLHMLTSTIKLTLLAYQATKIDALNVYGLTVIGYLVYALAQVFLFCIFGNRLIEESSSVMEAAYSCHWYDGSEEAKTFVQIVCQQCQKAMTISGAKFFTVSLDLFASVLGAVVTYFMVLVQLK
Excerpt: (§1) The coding regions of ten AaegOR genes of interest (S3 File) and AaegOrco were synthesized by Twist Bioscience (San Francisco, CA, USA) and cloned into the pENTR plasmid. The Gateway LR directional cloning system (Invitrogen Corp., Carlsbad, CA, USA) was utilized to subclone AaegOR coding regions into the pSP64t-RFA oocyte expression plasmid. Plasmids were purified using the GeneJet Plasmid Miniprep Kit (ThermoFisher Scientific, Waltham, MA, USA). Purified plasmids were sequenced in both directions to confirm coding regions.
(§2) Chemical compounds (S6 File) used in the deorphanization of AaegORs were purchased from Acros Organics (Morris, NJ, USA), Alfa Aesar (Ward Hill, MA, USA), and ThermoFisher Scientific (Waltham, MA, USA) at the highest purity available. Compounds were stored as 1M stocks in 100% DMSO. Serial dilutions of each compound were prepared in 10% DMSO and blended by chemical class.
(§3) pSP64t-RFA: AaegOR clones were linearized using Xbal, and cRNAs were synthesized using the mMESSAGE mMACHINE ® SP6 kit (Life Technologies, Carlsbad, CA, USA). Xenopus laevis stage V-VII oocytes purchased from Xenopus1 (Dexter, MI, USA) were stored at 18°C in Incubation medium (ND96 96 with 5% dialyzed horse serum, 50μg/mL gentamycin, 100μg/mL streptomycin, 100μg/mL penicillin, and 550μg/mL sodium pyruvate). 30nL of cRNA was injected into multiple oocytes using a microinjection syringe pump (World Precision Instruments, Sarasota, FL, USA) maintained at 18°C for 48–72 hrs. Odorant blends were perfused across individual oocytes for 10–15 seconds, held at a resting membrane potential of -80 mV using an OC-725C oocyte clamp (Warner Instruments, LLC, Hamden, CT, USA). Induced currents were measured indirectly using the two-electrode voltage clamp technique (TEVC). Following each stimulus, currents were allowed to return to baseline before further stimulation. Data was captured using the Digidata 1550 B digitizer and PClamp10 software (Molecular Devices, San Jose, CA, USA). Concentration-response curves were generated by perfusing unitary odorants over oocytes at increasing concentrations from [10^-3M] to [10^-9M]. Data were analyzed using GraphPad Prism 8 (GraphPad Software Inc., La Jolla, CA, USA). At least two biological replicates were conducted at each concentration and for each compound. Data for at least seven oocytes responding to each compound was analyzed (S7 File).

[2] = molecular target: T2, AaegOR15 (Aedes aegypti, UniProt A0A6B9QIR2); test: Two-electrode voltage clamp of Xenopus laevis oocytes expressing AaegOR15/Orco (blends, unitary compounds, concentration-response); conditions: unitary compounds of Alcohols 2; for Raw data (Responses in nA), compounds of blend Alcohols 2: individual oocytes 1-10 (replicates); for Normalized response, compounds of blend Alcohols 2, Average: average of 10 oocytes, 1-hexanol = 100; for Normalized response, compounds of blend Alcohols 2: individual oocytes 1-10, normalized to the largest response of each oocyte (1-hexanol = 100)
T2 sequence (A0A6B9QIR2 1-390): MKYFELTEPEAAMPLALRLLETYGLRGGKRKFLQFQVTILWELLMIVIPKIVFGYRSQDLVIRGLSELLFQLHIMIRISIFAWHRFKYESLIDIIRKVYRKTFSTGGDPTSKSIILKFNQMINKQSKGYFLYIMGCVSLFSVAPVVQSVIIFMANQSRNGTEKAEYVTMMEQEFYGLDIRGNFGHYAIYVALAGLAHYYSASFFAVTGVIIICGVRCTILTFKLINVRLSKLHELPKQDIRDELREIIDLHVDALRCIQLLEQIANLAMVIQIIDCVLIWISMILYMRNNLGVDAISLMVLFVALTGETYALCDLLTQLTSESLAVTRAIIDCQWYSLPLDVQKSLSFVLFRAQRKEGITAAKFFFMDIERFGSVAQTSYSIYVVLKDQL
T2 sequence (Q178U6 1-478 partner): T1 sequence (Q178U6 1-478 partner)
Excerpt: as §1, §2, §3

[3] = molecular target: T3, AaegOR13 (Aedes aegypti, UniProt Q16Z13); test: Two-electrode voltage clamp of Xenopus laevis oocytes expressing AaegOR13/Orco (blends, unitary compounds, concentration-response); conditions: unitary compounds
T3 sequence (Q16Z13 1-389): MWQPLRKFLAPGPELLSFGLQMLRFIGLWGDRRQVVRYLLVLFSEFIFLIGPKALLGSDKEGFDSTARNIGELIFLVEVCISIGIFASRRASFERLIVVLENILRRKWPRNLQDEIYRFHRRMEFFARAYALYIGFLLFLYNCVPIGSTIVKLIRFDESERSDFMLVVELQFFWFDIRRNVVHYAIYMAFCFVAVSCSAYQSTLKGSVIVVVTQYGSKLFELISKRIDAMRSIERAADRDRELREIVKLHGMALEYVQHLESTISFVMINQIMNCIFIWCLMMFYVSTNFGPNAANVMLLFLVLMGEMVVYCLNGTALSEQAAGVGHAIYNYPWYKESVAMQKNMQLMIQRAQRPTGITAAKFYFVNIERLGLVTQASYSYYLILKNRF
T3 sequence (Q178U6 1-478 partner): T1 sequence (Q178U6 1-478 partner)
Summary of the method: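 Xenopus oocytes injected with cRNA for AaegOR plus Orco, kept 48–72 hrs at 18°C, clamped at -80 mV by TEVC. Odorant blends or single compounds (10% DMSO dilutions) perfused 10–15 s; concentration-response from 10^-3M to 10^-9M, ≥7 responding oocytes, ≥2 biological replicates.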

[4] = molecular target: T4, AaegOR55 (Aedes aegypti, UniProt Q16T12); test: Two-electrode voltage clamp of Xenopus laevis oocytes expressing AaegOR55/Orco (blends, unitary compounds, concentration-response); conditions: AaegOR55, compounds of blend Indoles 1
T4 sequence (Q16T12 10-392): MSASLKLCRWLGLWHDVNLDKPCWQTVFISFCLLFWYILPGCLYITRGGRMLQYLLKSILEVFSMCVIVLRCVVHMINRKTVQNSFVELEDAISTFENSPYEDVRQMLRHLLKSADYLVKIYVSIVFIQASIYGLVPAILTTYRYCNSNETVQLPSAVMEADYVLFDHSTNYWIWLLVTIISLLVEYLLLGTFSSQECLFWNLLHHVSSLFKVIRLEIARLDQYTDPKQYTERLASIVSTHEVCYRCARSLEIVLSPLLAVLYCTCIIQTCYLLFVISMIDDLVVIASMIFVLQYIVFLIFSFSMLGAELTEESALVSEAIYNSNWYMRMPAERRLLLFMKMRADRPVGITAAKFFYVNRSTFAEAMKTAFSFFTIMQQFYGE
T4 sequence (Q178U6 1-478 partner): T1 sequence (Q178U6 1-478 partner)
Excerpt: as §1, §2, §3

Row | Molecule | Raw Data (Responses in nA), Alcohols 3 unitary compounds [1] | Raw data (Responses in nA), compounds of blend Alcohols 2 [2] | Raw data (Responses in nA), unitary compounds of Indoles 1, Alcohols 1, Alcohols 3 ([3]; individual oocytes 1-7) | also measured
1 | CC(C)C12CCC(C)(CC1)O2 [1,4-Cineole] | 0 nA | 0.0 nA (6×) and 10.0 nA (4×) | 0.0 nA | 
2 | CC12CCC(CC1)C(C)(C)O2 [1,8-cineole] | 5 nA and 0 nA (9×) | 0.0 nA (3×) and 5.0 nA (3×) and 10.0 nA (4×) | 0.0 nA | 
3 | C=C[C@](C)(O)CCC=C(C)C [(R)-(-)-linalool] | 10 nA (5×) and 5 nA (4×) and 20 nA | 0.0 nA (3×) and 10.0 nA (2×) and 20.0 nA and 25.0 nA and 40.0 nA (2×) and 15.0 nA |  | Normalized response, Average, Alcohols 3 unitary compounds [1]: 25.1; Normalized response, Alcohols 3 unitary compounds [1]: 33.3 and 28.6 and 50.0 and 25.0 and 20.0 and 16.7 and 12.5 and 22.2 (2×) and 20; Normalized response, compounds of blend Alcohols 2, Average [2]: 2.4; Normalized response, compounds of blend Alcohols 2 [2]: 0.0 (3×) and 1.4 and 2.6 and 3.7 (2×) and 1.7 and 5.4 and 5.5
4 | C=CCc1ccc(O)c(OC)c1 [Eugenol] | 0 nA | 0.0 nA (2×) and 5.0 nA and 10.0 nA (3×) and 15.0 nA (2×) and 30.0 nA and 20.0 nA | 20.0 nA and 430.0 nA and 105.0 nA and 220.0 nA and 160.0 nA (2×) and 100.0 nA | 
5 | C=CC(C)(O)CC/C=C(\C)CC/C=C(\C)CCC=C(C)C (stereo not shown) [Geranyl Linalool] | 0 nA | 0.0 nA (7×) and 10.0 nA (3×) | 0.0 nA | Normalized response, Average, Alcohols 3 unitary compounds [1]: 0.0; Normalized response, Alcohols 3 unitary compounds [1]: 0.0 (9×) and 0; Normalized response, compounds of blend Alcohols 2, Average [2]: 0.4; Normalized response, compounds of blend Alcohols 2 [2]: 0.0 (7×) and 1.3 and 0.9 and 1.7; Normalized response, unitary compounds, Average ([3]; average of oocytes 1-7): 0.0; Normalized response, unitary compounds of Indoles 1, Alcohols 1, Alcohols 3 ([3]; normalized per oocyte, individual oocytes 1-7): 0.0
6 | C=CC1(C)CCC(C(C)(C)O)O1 (stereo not shown) [Linalool Oxide] | 0 nA | 0.0 nA (6×) and 10.0 nA (2×) and 5.0 nA (2×) |  | 
7 | COC(=O)c1c[nH]c2ccccc12 [methylindole-3-carboxylate] |  |  |  | Normalized response, Average, Indoles 1 unitary compounds ([4]; average of 7 oocytes): 5.2; Raw Data (Responses in nA), Indoles 1 unitary compounds ([4]; individual oocytes (Oocyte 1-7)): 20.0 nA and 10.0 nA (5×) and 15.0 nA; Normalized response, Indoles 1 unitary compounds ([4]; individual oocytes (Oocyte 1-7), normalized to the strongest compound per oocyte): 8.5 and 7.1 and 4.0 and 3.3 and 5.4 and 4.9 and 3.4
8 | CCC(C)(O)CCCC(C)C (stereo not shown) [tetrahydrolinalool, Tetrahydrolinalool] | 30 nA (2×) and 25 nA and 35 nA and 20 nA (2×) and 50 nA and 40 nA and 45 nA and 90 nA | 0.0 nA (3×) and 20.0 nA (4×) and 40.0 nA and 10.0 nA and 5.0 nA | 0.0 nA | EC50 ([1]; AaegOR28/Orco expressing oocytes, TEVC, concentration-response of normalized current): 44.1 µM; Raw Data (Responses in nA), concentration-response ([1]; concentration 1e-6): 5 nA (4×) and 0 nA (2×) and 10 nA and 20 nA; Raw Data (Responses in nA), concentration-response ([1]; concentration 5e-6): 30 nA and 10 nA (2×) and 20 nA (4×) and 50 nA; Raw Data (Responses in nA), concentration-response ([1]; concentration 1e-5): 40 nA (3×) and 30 nA (2×) and 50 nA and 45 nA and 95 nA; Raw Data (Responses in nA), concentration-response ([1]; concentration 5e-5): 150 nA and 200 nA and 70 nA and 230 nA and 220 nA and 90 nA and 180 nA and 260 nA; Raw Data (Responses in nA), concentration-response ([1]; concentration 0.0001): 290 nA and 320 nA and 140 nA and 330 nA and 400 nA and 100 nA and 220 nA and 310 nA; Raw Data (Responses in nA), concentration-response ([1]; concentration 0.0005): 380 nA and 530 nA and 180 nA and 400 nA and 480 nA and 105 nA and 230 nA and 340 nA; Raw Data (Responses in nA), concentration-response ([1]; concentration 0.001): 400 nA and 440 nA (2×) and 200 nA and 500 nA and 110 nA and 350 nA and 300 nA
9 | isoeugenol | 0 nA | 0.0 nA (5×) and 10.0 nA (2×) and 20.0 nA (3×) | 0.0 nA and 110.0 nA and 25.0 nA and 40.0 nA and 35.0 nA (2×) and 15.0 nA | 
